# According to US20150139973A1, “OPHTHALMOLOGICAL VEHICLE SYSTEM FOR DRUGS, OPHTHALMOLOGICAL KIT AND ALSO USE OF AN OPHTHALMOLOGICAL COMPOSITION” (F. HOLZER GMBH, priority 2012, published 2015):
# Test system: human corneal epithelial cell line HCE-T
# Assay: Vitality determination on corneal epithelial cells in culture (Cell Titer Blue test)
# Type: cell-based
# Settings: 60 minutes incubation
# Protocol: The cytotoxicity tests were performed on the human corneal epithelial cell line […]. in the cell test. Cultivation was effected in a black 96 well plate (Nunc). Per well, 25,000 cells were sown and cultivated for 48 h. Determination of the viability was implemented with the Cell Titer Blue® test. The dye resazurin is hereby added to the cells after exposure with the samples. Viable cells are able, because of their mitochondrial activity, to convert the resazurin into the fluorescent resorufin which can be determined fluorimetrically (Illustration 1). Via positive control (Krebs-Ringer-buffer-KRB and saline phosphate buffer-PBS) and also negative control (lysis buffer), the viability of the cells can be expressed as a percentage. All samples were determined with n=6. For the determination, the cell culture medium was removed, the cells were rinsed with KRB and incubated for 60 minutes with the various samples and also controls. […] Thereafter, all samples were treated with KRB and resazurin according to Promega protocol and measured with a Genios Plate Reader (Tecan).
compound,measurement,value
"CCCCCCCCCCCCCCCC(=O)OC(C)C [Sample K4, isopropyl palmitate]",cytotoxicity,lowest cytotoxicity
same,survival rate of the cells,100%
